One data set concerns the target T1, (H+/K+)-ATPase (Canis lupus familiaris, UniProt P50996).
T1 construct: The microsomes retained at the 15%-30% sucrose interface, after centrifugation at 250,000×g for sixty minutes, were used as the source of (H^+/K^+)-ATPase; from tissue; host or cells: gastric glandular mucosa of mongrel dogs (microsomal fraction, lyophilized)
Nature of the data set: Inhibition of (H+/K+)-ATPase from canine gastric mucosa (inorganic phosphate release). It is filed as biochemical. As for the experimental part:
Mongrel dogs weighing 15 to 25 kilograms were fasted for twenty-four hours, with water provided ad libitum. The animals were anesthetized with pentobarbital and the stomachs were removed. Subsequent tissue manipulations and subcellular fractionations were performed at 0° C. to 4° C. After the stomachs were cut open and rinsed with tap water, the antral and cardiac regions were removed and the remaining tissue was rinsed three times in saline. The glandular mucosa was removed mechanically, chopped finely in a medium containing 10 mM Tris hydrochloride (pH 7.4) and 250 mM sucrose, and homogenized. The homogenate was centrifuged at 20,000×g for twenty minutes and the pellet discarded. The supernatant was then centrifuged at 150,000×g for ninety minutes and the supernatant discarded. The pellet was resuspended in the Tris-HCl/sucrose medium by homogenization. Part (2 ml) of the resultant microsomal suspension was layered onto a step gradient consisting of 9 ml of 15% sucrose above 12 ml of 30% sucrose, each sucrose solution being buffered with 10 mM Tris hydrochloride (pH 7.4) containing 0.01% sodium azide. The microsomes retained at the 15%-30% sucrose interface, after centrifugation at 250,000×g for sixty minutes, were used as the source of (H^+/K^+)-ATPase. Microsomal preparations were lyophilized, a process that assured potassium ion permiability, and stored at −10° C. until used.
(H^+/K^+)-ATPase activity for each test compound was determined, in duplicate, by measuring the release of inorganic phosphate, which was assayed according to the method of J. ChandraRajan and L. Klein, Anal. Biochem., 72 , 407 (1976). The (H^+/K^+)-ATPase assay medium consisted of 20 mm mes-Tris (pH 6.0), 5 mM magnesium chloride, 25 mM sucrose, and 4 mM Tris-ATP with or without 20 mM potassium chloride in a total volume of 2 ml. Microsomal suspensions (20 to 60 mcl, containing about 25 mcg protein) were added to the assay medium, without Tris-ATP, and then preincubated with a test compound for thirty minutes at 37° C. The assay was initiated by adding Tris-ATP and the mixture was incubated another thirty minutes at 37° C. A 200-mcl aliquot of the assay mixture was then added to 1.4 ml of a solution consisting of 0.1 M sodium acetate (pH 4.0) and 10% sodium dodecylsulfate, followed by the addition of 200 mcl each of 1% ammonium molybdate and 1% ascorbic acid. At least fifteen minutes later, the optical absorbance at 870 nm (which was proportional to inorganic phosphate concentration up to 100 nmoles per tube, as determined by a standard curve) was obtained. Enzyme activity was linear with incubation time.
(H^+/K^+)-ATPase activity is represented by the difference between the measured activities in the presence of potassium-ion (K^+-stimulated) and in the absence of potassium ion (basal).

For another data set, the system named is gastric acid secretion. In words: Inhibition of gastric acid secretion in gastric fistula beagle dogs (histamine-stimulated). It is filed as in vivo. The note with it: for inhibition in vivo at 3 mg/kg: Canis lupus familiaris, 4 h, read-out: Gastric-Fistula Beagle % Inhibition (3 mg/kg dose). The text has this: Adult female beagle dogs weighing 6 to 11 kilograms obtained from Laboratory Research Enterprises (Kalamazoo, Mich.) or from Hazelton Research Animals (Cumberland, Va.) were surgically implanted with a simple Thomas-type gastric cannula. After recovery from surgery, the dogs were trained to stand quietly, fully conscious, in Pavlov-type dog restraining slings and were acclimated to intravenous infusion of histamine dihydrochloride. During the course of these studies, no dog was used more than once a week. All dogs were deprived of food, but not water, for 18 hours prior to each assay. Each dog was initially infused with 0.15 M sodium chloride solution at a constant rate of […]. The volume of gastric secretions, collected in plastic bottles affixed to the cannula, were measured to the nearest 0.1 ml at 30 minute intervals. One of the following protocols was followed, depending on the route chosen for administration of test compound.
Intravenous dosing: Following a 30-minute basal secretion period, test compounds were administered intravenously (i.v.). At the end of an additional 30 minute period, the saline infusion was replaced with histamine dihydrochloride in saline administered at a rate 15 mcg per kilogram of body weight per hour. Histamine stimulation was maintained for a maximum of four hours during which time gastric secretions were collected every 30 minutes. The pH and titratable acidity were determined for samples from each collection period.
Intragastric dosing: Following a 30-minute basal secretion period, he collection bottles were removed, dosing plugs here inserted, and test compounds were administered intragastrically (i.g.) At the end of a 30-minute drug absorption period, the stomachs were emptied, the collection bottles were reattached, and collections were resumed at 30-minute intervals. Simultaneously, the saline infusion was replaced with a continuous intravenous infusion of histamine dihydrochloride in saline administered for four hours at a rate 15 mcg per kilogram of body weight per hour.
Intraduodenal dosing: Dogs were also equipped with duodenal cannulas for intraduodenal (i.d.) administration of test compounds. Dosing was otherwise performed as described for intragastric dosing.
Data from each protocol were analyzed for three gastric sample variables: volume of gastric juice, acid concentration, and total acid output. Percent inhibition for each four-hour experimental period was determined for each parameter by comparison with 3 to 4 controls in which […]. Estimates of ED50's were determined from dose response curves.

The target of data set [1] is HCMV protease (assemblin) (Human cytomegalovirus, UniProt P16753). In words: Enzymatic assay for HCMV protease (assemblin) inhibitors, fluorogenic substrate DE2. It is filed as biochemical. The note with it: for inhibition at 100 µM: read-out: Assemblin Inhibition % Inhibition at 100 μm. As for the experimental part: The enzymatic assay for assemblin inhibitors compared the rate of product appearance between a control reaction containing no inhibitor and one that contained a known concentration of a potential inhibitor. There were two phases to the enzyme reaction. The first was a period of incubation of enzyme in the presence of inhibitor, but in the absence of the substrate. This incubation allowed for the inhibitor to bind and potentially block the enzyme from hydrolyzing the substrate. The second phase was started by adding the substrate and measuring the rate of product production.
The construction also encoded six additional histidine residues at the amino terminus of the protease. These additional histidine residues provided an affinity ligand by which it was purified using nickel-nitriloacetic acid-agarose (Qiagen).
The purified protease was stored as a 1-3 mg/ml stock solution in 50 mM sodium phosphate buffer, pH 7.4; 300 mM sodium chloride; 100 mM imidazole; 50% (v/v) glycerol. This stock was diluted with assay buffer to 4.8 μg/ml. A 100 μL aliquot of this solution was used in the enzyme reaction.
A specific substrate was synthesized based on the cleavage specificity of HCMV protease at the “maturation site” of the assembly protein (F. Liu and B. Roizman, J. Viral. 65, 5149 (1991), and A. R. Welch, et al, J. Viral., 65 4091 (1991)). The assembly protein maturation site has the sequence . . . AGVVNA*SCRLATA . . . (SEQ ID NO. 1); the substrate used was dabcycl-Abu-[…]-edans (SEQ ID NO. 2) (DE2). […] However, when the two chromophores are separated because of hydrolysis of the peptide moiety by HCMV protease the edans fluorescence was no longer quenched and an increase in fluorescence was realized. DE2 was stored as a stock solution at 160 μg/ml in dimethyl sulfoxide. This was diluted 10-fold with assay buffer to give a concentration of 16 μg/ml just before use. An aliquot of 50 μL was used in the reaction.
An assay Buffer (10 mM sodium phosphate buffer, pH 7.4; 150 mM sodium acetate; 0.1% CHAPS; and 20% (v/v) glycerol) was used to dilute stock solutions of enzyme and substrate.
Inhibitors were dissolved in dimethyl sulfoxide at 16-times the final assay concentration. A 10 μL aliquot of this inhibitor solution was used in the reaction.
A 100 μL aliquot of enzyme solution (4.8 μg/ml) was mixed with 10 μL of inhibitor solution in a 96-well plate cell and incubated at 22° C. for 30 minutes. Control reactions contained 10 μL of dimethylsulfoxide instead of inhibitor solution. After the preincubation was completed, 50 μL of substrate solution was added and the fluorescence recorded every 5 minutes for a period of 30 minutes. All reactions were run in triplicate with the exception of the uninhibited control reaction which was replicated 6-fold. The change in fluorescence was recorded over time and an average rate for each set of 3 reactions was calculated. Fluorescence assays were subject to spurious various due to factors such as dust in the 96-well plate; such results were omitted from the calculation of relative rates.

The mark [2] stands for this setting: canine gastric mucosa microsomes, pH 6.0, 30 min preincubation at 37° C., read-out: (H+/K+)-ATPase IC50.
Where [3] appears, read: at 100 μm, 30 min preincubation at 22° C.
The mark [4] stands for this setting: intraduodenal, 3 mg/kg i.d., histamine-stimulated, four-hour period.
[5] abbreviates: iv, 3 mg/kg i.v., histamine-stimulated, four-hour period.

The structures appear in SMILES notation. Where two headings read alike, the source gives them in different places. A value given as a limit tells only on which side of the number the result lay.

T1 sequence (P50996 whole entry): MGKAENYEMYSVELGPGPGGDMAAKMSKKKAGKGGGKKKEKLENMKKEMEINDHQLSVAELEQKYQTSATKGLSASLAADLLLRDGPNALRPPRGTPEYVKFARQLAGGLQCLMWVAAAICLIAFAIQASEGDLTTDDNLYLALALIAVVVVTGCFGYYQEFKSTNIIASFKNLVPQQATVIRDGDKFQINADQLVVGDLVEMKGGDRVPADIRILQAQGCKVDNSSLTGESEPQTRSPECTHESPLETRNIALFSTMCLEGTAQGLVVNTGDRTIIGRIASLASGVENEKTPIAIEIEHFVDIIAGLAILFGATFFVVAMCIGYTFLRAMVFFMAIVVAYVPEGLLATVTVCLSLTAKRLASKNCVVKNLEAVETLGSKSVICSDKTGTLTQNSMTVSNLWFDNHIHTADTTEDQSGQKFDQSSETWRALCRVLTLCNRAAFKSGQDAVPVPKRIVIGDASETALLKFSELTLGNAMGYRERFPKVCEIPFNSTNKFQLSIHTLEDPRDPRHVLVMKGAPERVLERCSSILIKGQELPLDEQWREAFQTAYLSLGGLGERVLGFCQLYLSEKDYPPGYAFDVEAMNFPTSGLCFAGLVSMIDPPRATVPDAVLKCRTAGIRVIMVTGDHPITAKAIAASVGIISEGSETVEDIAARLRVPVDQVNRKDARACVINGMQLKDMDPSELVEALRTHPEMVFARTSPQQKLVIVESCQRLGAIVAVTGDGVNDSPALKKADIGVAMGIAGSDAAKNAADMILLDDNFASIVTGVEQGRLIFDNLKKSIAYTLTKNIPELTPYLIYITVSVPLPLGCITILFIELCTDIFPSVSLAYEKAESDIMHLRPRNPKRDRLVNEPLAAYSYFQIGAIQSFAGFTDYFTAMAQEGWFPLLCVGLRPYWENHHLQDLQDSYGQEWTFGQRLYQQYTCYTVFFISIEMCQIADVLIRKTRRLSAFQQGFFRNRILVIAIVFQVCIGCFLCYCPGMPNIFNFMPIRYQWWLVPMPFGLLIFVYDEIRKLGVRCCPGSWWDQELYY
T1 sequence (P33704 whole entry partner): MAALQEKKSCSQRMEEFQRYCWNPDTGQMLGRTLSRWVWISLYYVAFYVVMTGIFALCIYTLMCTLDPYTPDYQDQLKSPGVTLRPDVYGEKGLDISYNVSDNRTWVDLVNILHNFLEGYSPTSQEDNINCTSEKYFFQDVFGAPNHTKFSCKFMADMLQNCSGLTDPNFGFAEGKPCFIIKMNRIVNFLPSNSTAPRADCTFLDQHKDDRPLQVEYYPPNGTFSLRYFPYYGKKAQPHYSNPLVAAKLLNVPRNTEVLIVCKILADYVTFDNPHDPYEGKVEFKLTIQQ
Sequence of HCMV protease (assemblin) (P16753 1-256): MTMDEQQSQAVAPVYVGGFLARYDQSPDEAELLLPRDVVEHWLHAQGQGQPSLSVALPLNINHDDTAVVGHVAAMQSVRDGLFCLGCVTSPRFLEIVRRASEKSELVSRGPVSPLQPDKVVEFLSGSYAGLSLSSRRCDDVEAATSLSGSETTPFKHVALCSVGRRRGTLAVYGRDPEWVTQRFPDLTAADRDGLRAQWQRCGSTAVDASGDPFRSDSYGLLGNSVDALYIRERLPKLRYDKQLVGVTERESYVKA

Consider `CCOC(=O)c1ccc(N)c(C[S+]([O-])c2nc3ccccc3[nH]2)c1.CCOC(=O)c1ccc(N)c(C[S+]([O-])c2nc3ccccc3[nH]2)c1.O` (stereo not shown) [Example 71, Ethyl 4-amino-3-[(1H-benzimidazol-2-ylsulfinyl)methyl]benzoate hemihydrate], for which the IC50 on (H+/K+)-ATPase (setting [2]) was over 100 µM. For the same compound, the “Gastric-Fistula Beagle % Inhibition (3 mg/kg dose)” value in the data set with gastric acid secretion (3 mg/kg i.d., histamine-stimulated, four-hour period) came out at 7 i.d. %. The “Assemblin Inhibition % Inhibition at 100 μm” value in data set [1] (setting [3]) is reported as 44%.
A word on the melting point: it is the temperature of the solid-liquid transition. Usually inhibition stands for how much of the control response was suppressed. In turn, `COc1ccc2[nH]c([S+]([O-])Cc3ccccc3N)nc2c1` (stereo not shown) [Example 12, 2-[[(5-Methoxy-1H-benzimidazol-2-yl)sulfinyl]methyl]benzenamine] came in with a melting point of 147 to 148 °C. Moreover, the IC50 at (H+/K+)-ATPase (setting [2]) amounted to 11 µM. Moreover, the inhibition in vivo at 3 mg/kg with gastric acid secretion (setting [4]) turned out to be 90%. Moreover, the inhibition at 100 µM in data set [1] (setting [3]) came out at 26%.
In the case of `COc1cccc(C[S+]([O-])c2nc3ccccc3[nH]2)c1N.COc1cccc(C[S+]([O-])c2nc3ccccc3[nH]2)c1N.O` (stereo not shown) [Example 22, 2-((1H-Benzimidazol-2-ylsulfinyl)methyl]-6-methoxybenzenamine hemihydrate], on (H+/K+)-ATPase (setting [2]), the IC50 turned out to be 9.3 µM. In addition, in the data set with gastric acid secretion (3 mg/kg i.v., histamine-stimulated, four-hour period), the “Gastric-Fistula Beagle % Inhibition (3 mg/kg dose)” value was determined as 70 i.v. %. Further, the “Assemblin Inhibition % Inhibition at 100 μm” value in data set [1] (setting [3]) amounted to 35%.
Regarding `COc1cc(Cl)c(C)c(C[S+]([O-])c2nc3ccccc3[nH]2)c1N` (stereo not shown) [Example 59, 2-[(1H-Benzimidazol-2-ylsulfinyl)methyl]-4-chloro-6-methoxy-3-methylbenzenamine], the melting point was in the range of 163 to 164 °C. In addition, the IC50 on (H+/K+)-ATPase (setting [2]) came to 2.7 µM. In addition, the inhibition at 100 µM in data set [1] (setting [3]) is 71%.
In the case of `CCOc1ccc2[nH]c([S+]([O-])Cc3ccccc3N)nc2c1` (stereo not shown) [Example 45, 2-[[(5-Ethoxy-1H-benzimidazol-2-yl)sulfinyl]-methyl]benzenamine], the melting point lay within 154 to 155 °C. The IC50 on (H+/K+)-ATPase (setting [2]) came out at 24 µM. In addition, the inhibition at 100 µM in data set [1] (setting [3]) came to 51%.
For the compound `Nc1ccccc1C[S+]([O-])c1nc2cc(C(F)(F)F)ccc2[nH]1` (stereo not shown) [Example 47], the melting point was 152 to 152.5 °C. Also, the IC50 on (H+/K+)-ATPase (setting [2]) stood at 4.4 µM. In addition, the inhibition in vivo at 3 mg/kg in the data set on gastric acid secretion (setting [4]) came to 37%. In addition, the inhibition at 100 µM in data set [1] (setting [3]) is 40%.
Turning to `Cc1cc2nc([S+]([O-])Cc3ccccc3N)[nH]c2cc1C` (stereo not shown) [Example 10, 2-[[(5,6-Dimethyl-1H-benzimidazol-2-yl)sulfinyl]methyl]benzenamine ¼ hydrate], the IC50 on (H+/K+)-ATPase (setting [2]) is 13.5 µM. For the same compound, the inhibition in vivo at 3 mg/kg in the data set with gastric acid secretion (setting [5]) turned out to be 44%. Further, the inhibition at 100 µM in data set [1] (setting [3]) is 43%.
`CCOC(=O)c1ccc(N)c(C[S+]([O-])c2nc3ccc(OC)cc3[nH]2)c1` (stereo not shown) [Example 73, Ethyl 4-amino-3-[[(S-methoxy-1H-benzimidazol-2-yl)sulfinyl]methyl]benzoate]: the IC50 on (H+/K+)-ATPase (setting [2]) was over 100 µM. Moreover, in data set [1] (setting [3]), the inhibition at 100 µM was 50%.
In turn, `CN(C)c1ncccc1C[S+]([O-])c1nc2ccccc2[nH]1` (stereo not shown) [Example 83, 3-[(1H-Benzimidazol-2-ylsulfinyl)methyl]-N,N-dimethyl-2-pyridinamine ⅓ hydrate] registered an IC50 against (H+/K+)-ATPase of 8.6 µM. Further, the inhibition in vivo at 3 mg/kg in the data set with gastric acid secretion (setting [5]) turned out to be 15%. Also, the inhibition at 100 µM in data set [1] (setting [3]) turned out to be 83%.
`COc1c(C)cc(N)c(C[S+]([O-])c2nc3ccccc3[nH]2)c1C` (stereo not shown) [Example 39, 2-[(1H-Benzimidazol-2-ylsulfinyl)methyl]-4-methoxy-3,5-dimethylbenzenamine] registered a melting point of 150 to 155 °C. On (H+/K+)-ATPase (setting [2]), the IC50 came out at 0.2 µM. In the data set on gastric acid secretion (setting [4]), the inhibition in vivo at 3 mg/kg was 53%. In addition, the inhibition at 100 µM in data set [1] (setting [3]) turned out to be 46%.
Consider `CNc1ccccc1C[S+]([O-])c1nc2ccccc2[nH]1` (stereo not shown) [Example 32, 2-[(1H-Benzimidazol-2-ylsulfinyl)methyl]-N-methylbenzenamine monohydrate], for which the IC50 at (H+/K+)-ATPase (setting [2]) is 0.64 µM. In addition, the inhibition in vivo at 3 mg/kg in the data set on gastric acid secretion (intraduodenal) stood at 21%. Besides, in data set [1], the inhibition at 100 µM came to 52%.
As for `Cc1cc(Cl)cc(C[S+]([O-])c2nc3ccccc3[nH]2)c1N.Cc1cc(Cl)cc(C[S+]([O-])c2nc3ccccc3[nH]2)c1N.O` (stereo not shown) [Example 57, 2-[(1H-Benzimidazol-2-ylsulfinyl)methyl]-4-chloro-6-methylbenzenamine hemihydrate], the IC50 at (H+/K+)-ATPase (setting [2]) came to 60 µM. In data set [1] (setting [3]), the “Assemblin Inhibition % Inhibition at 100 μm” value was found to be 66%.

These data come from patent US6906078B2, “Method of using (H+/K+) ATPase inhibitors as antiviral agents” (Pharmacia Corporation, priority 1994, dated 2005).
